The subject of series [1] is CV-1 cells. Nature of the series: Transfection of CV-1 cells with five 35:DOPE preparations (Example 20). Particulars: 35:DOPE 2:1, 1 μg lipid, 6 h, 10% FBS; in words. The class given is cell-based, African green monkey. As for the experimental part: Lipid complexes consisting of 35:DOPE (2:1 molar ratio) were prepared as follows. Two molar equivalents of 35 in CHCl3 and one equivalent of DOPE in CHCl3 was dried under reduced pressure by rotovap at room temperature. Deionized water was then added to give 1 mg/mL of total lipid. 10 mL of water containing 10 mg of lipid was vortexed for 5 minutes in a 100 mL round bottom flask. 2 mL aliquots were then used to prepare lipid suspensions for complexing with ODN1. The first preparation was obtained by directly using the vortexed 2 mL aliquot to prepare complexes with ODN1. The second preparation was obtained by 6 cycles of freezing on dry ice and thawing in a 37° C. water bath (Baxter, Dura Bath). The third preparation was obtained by placing a culture tube containing the lipid into a Ultra Sonik 100 (NEY) sonicator and the preparation was sonicated for 30 minutes at room temperature using the probe tip at maximum power. The fourth preparation was obtained by 6 cycles of freezing on dry ice and thawing in a 37° C. water bath, followed by filtering the suspension through a Lipofast™ 100 nm filter according to the manufacturer's instructions to obtain complexes less than about 100 nm in diameter. The fifth preparation was obtained by sonication for 10 minutes in a sonication bath followed by 5 sonication pulses for 15 seconds each with a probe sonicator (Sonifier 250, Branson Ultrasonics). […]

A short description of series [2]: Transfection of CV-1 cells with ODN1 and toxicity (Example 22). The class given is cell-based, African green monkey. The note with it: monkey, cv-1 cells; 10.0 μg lipid. As for the experimental part:
(§1) Lipids 35, 52, 54 and 55 were each prepared using a 2:1 lipid:DOPE molar ratio as follows. Two molar equivalents of each lipid in CHCl3 and one equivalent of DOPE in CHCl3 was dried under reduced pressure by rotovap at room temperature. Deionized water was then added to give 1 mg/mL of total lipid. 10 mL of water containing 10 mg of lipid was vortexed for 5 minutes in a 100 mL round bottom flask. 2 mL aliquots were then used to prepare lipid suspensions for complexing with ODN1. Each preparation was obtained by 6 cycles of freezing on dry ice and thawing in a 37° C. water bath.

The subject of series [3] is CV-1 cells. The series is described as above. The class given is cell-based, African green monkey. The note with it: for % cells transfected: 2:1 DOPE, 6 h, 10% FBS, 250 pmole ODN1. As for the experimental part: as §1
For another series, the system named is cdc-2 kinase. Nature of the series: cdc-2 antisense oligonucleotide analog transfection, Western blot (Example 22). The class given is cell-based, African green monkey. Particulars: 30 nM cdc-2 antisense oligonucleotide analog, 2.5 and 5.0 μg lipid. The text has this:
The oligonucleotide contained 5-(1-propynyl)cytosine in place of cytosine and 5-(1-propynyl)uracil in place of uracil. A control oligonucleotide analog having a mismatched base sequence was also used to check for any non-specific effect on cdc-2 kinase levels in the transfected cells caused by the oligonucleotide analog. A control containing only lipid was also used as a control. […] Protein levels were examined by Western blot analysis.
In general terms: Immunoblotting shows a protein as a band on a membrane.

The test system of series [4] is cells. Nature of the series: Amount of fluorescently labeled oligonucleotide delivered versus commercially available lipids. Format: cell-based. The note with it: observed fluorescence intensity, estimated. The text has this: The difference in transfection efficiency between lipids described herein and commercially available lipids is usually most pronounced when the transfections are done in the presence of medium containing serum. The amount of polyanion delivered into cells was estimated to be about 2- to 100-fold greater for lipids 30, 34 and 35 based on the observed fluorescence intensity of transfected cells after transfection using a fluorescently labeled oligonucleotide. The cationic lipids described herein also transfect some cell types that are not detectably transfected by commercial lipids, particularly where the transfection is conducted in the presence of serum.

A short description of series [5]: Transfection of Caco-2 cells with ODN1 using 34 (Example 12). The note with it: human, caco-2 cells; Caco-2, 5.0 μg lipid; read-out: toxicity. The class given is cell-based, human. How it is done:
(§2) Preparation of lipid-nucleic acid complexes and cell transfection.
(§3) SK-BR-3, Caco-2, Caov-3 and MCF7 cells were transfected with ODN1 using 34 which was prepared as described in Example 5 using a 1:1 molar ratio of DOPE colipid. The sonicated lipid-colipid mixture (1 mL of a 2.5, 5 or 10 μg/mL suspension) was mixed with 250 pmole ODN1 and allowed to stand […] at room temperature […] before adding 1 mL of the lipid-ODN1 complex to the cells. The lipid-ODN1 complex was removed from the cells after 6 hours by washing the cells twice in PBS, followed by observing the cells in serum-containing medium immediately after removing the lipid-ODN1 complex.

A further series relates to Caco-2 cells. The series is described as above. Format: cell-based, human. Particulars: 6 h, 1:1 DOPE. As for the experimental part: as §2, §3
Series [6] can be described thus: Transfection of Caov-3 cells with ODN1 using 34 (Example 12). The note with it: human, caov-3 cells; Caov-3, 10.0 μg lipid; read-out: toxicity. The class given is cell-based, human. As for the experimental part: as §2, §3
For another series, the system named is Caov-3 cells. The description is as above. The class given is cell-based, human. The note with it: 6 h, 1:1 DOPE. As for the experimental part: as §2, §3
For another series, the system named is MCF7 cells. In words: Transfection of MCF7 cells with ODN1 using 34 (Example 12). Format: cell-based, human. Particulars: 6 h, 1:1 DOPE. As for the experimental part:
as §2, §3

In the next series the test system is SK-BR-3 cells. Nature of the series: Transfection of SK-BR-3 cells with ODN1 using 34 (Example 12). The class given is cell-based, human. The note with it: 6 h, 1:1 DOPE. How it is done: as §2, §3
The test system of series [7] is CV-1 cells. In words: Transfection of CV-1 cells with CAT RNA (Example 16). The class given is cell-based, African green monkey. The note with it: 2.5 μg RNA, 5 μg lipid, 24 h, DMEM 10% FBS or Optimem. As for the experimental part:
CV-1 cells were transfected for 24 hours with RNA encoding chloramphenicol acetyltransferase (CAT). The transfections used 2.5 μg of RNA, 5 μg of 34 and DMEM with 10% FBS or Optimem™ with no serum. CAT activity was measured by immunofluorescence staining using fluorescent labeled anti-CATantibodies (5',3'Inc.). The cells were observed as previously described (Wagner, Science (1993) 260:1510).

The test system of another series is T antigen. Nature of the series: Antisense inhibition of T antigen expression in CV-1 cells with ODN2A (Example 19). The class given is cell-based, African green monkey. How it is done:
ODN2A, which was ODN2 lacking the fluorescent label at the 3' terminus, was used as an antisense oligonucleotide to inhibit T antigen expression in CV-1 cells using the protocol previously described (Wagner Science (1993) 260:1510-1513). CV-1 cells were transfected for 18 hours using 5 μg of 34 (1:1 molar ratio with DOPE colipid) and then cell nuclei were microinjected with T antigen plasmid using a needle concentration of 0.003 μg/mL of T antigen plasmid (ibid at page 1513, first column, note 5) and 0.025 μg/mL of β-galactosidase plasmid. The cells were scored for T antigen expression 4.5 hours after removing the transfection preparation from the cells. The cells were immunostained for β-galactosidase expression as an internal control for microinjected cells and the proportion of cells expressing both T antigen and β-galactosidase was determined.

Series [8] deals with cells. Nature of the series: Transfection with filtered preparations. The class given is cell-based. The note with it: 1:1 DOPE, sonicated. As for the experimental part: The invention cationic lipids 30 or 34 and DOPE colipid (1:1) were prepared by sonication and then filtered using 200, 100 or 50 nm filters to obtain particles less than about 200 nm in diameter, less than about 100 nm and less than about 50 nm. […] The 50 nm filtered preparations were about 40-50% as efficient as the preparations containing larger particles. The size of the particles or miscelles in a given preparation will vary depending on the preparation method. Sonicating cationic lipid-colipid mixtures will provide smaller miscelles and vortexing will provide larger miscelles (Felgner J. Biol. Chem. (1994) 269:2550-2561). Such miscelles are believed to transfer the polyanion into the cytoplasm of a eukaryotic or prokaryotic cell by pinocytosis, endocytosis and/or by direct fusion with the plasma membrane.

`CCCCCCCCCCCCCCN(CCCCCCCCCCCCCC)C(=O)CNC(=O)[C@@H](N)CCCNC(=N)NC(=O)OC(C)(C)C` [Compound 35]: in the series with CV-1 cells [1], the “transfection of CV-1 cells, all preparations” value was “efficiently transfected CV-1 cells”. The cytotoxicity at 6 h in [2] is above 40%. The “% cells transfected” value was found to be 40% in the series with CV-1 cells [3] (1 μg lipid), 85% in the series with CV-1 cells [3] (2.5 μg lipid), 100% with CV-1 cells [3] (5.0 μg lipid) and 60% in the series on CV-1 cells [3] (10.0 μg lipid). The “uniformity of cell staining” value with CV-1 cells [3] (footnote, in words) is “relatively uniformly stained”. Besides, the cdc-2 protein levels entry with cdc-2 kinase is “efficiently reduced cdc-2 protein levels”. For the same molecule, the “amount of polyanion delivered into cells relative to commercially available lipids” value in the series on cells [4] is reported as 2- to 100 fold.

With `CCCCCCCCCCCCCCCCCCN(CCCCCCCCCCCCCCCCCC)C(=O)CNC(=O)[C@@H](N)CCCNC(=N)NC(=O)OC(C)(C)C` [Compound 34], the cytotoxicity at 6 h in [5] and in [6] was below 10% throughout. Moreover, the “% transfected” value with Caco-2 cells (Caco-2, 2.5 μg lipid) is given as below 5%; in the series with Caco-2 cells (Caco-2, 5.0 μg lipid), 10-15%; with Caco-2 cells (Caco-2, 10.0 μg lipid) it was 0%; in the series on Caov-3 cells (Caov-3, 2.5 μg lipid), 20%; with Caov-3 cells (Caov-3, 5.0 μg lipid), 20%; in the series with Caov-3 cells (Caov-3, 10.0 μg lipid), 61%. Moreover, the “% transfected” value in the series on MCF7 cells (MCF7, 2.5 μg lipid) is 30-50%; in the series with MCF7 cells (MCF7, 5.0 μg lipid) it was 83%; in the series on MCF7 cells (MCF7, 10.0 μg lipid) it was 80%; in the series on SK-BR-3 cells (SK-BR-3, 2.5 μg lipid) it was 60-70%; with SK-BR-3 cells (SK-BR-3, 5.0 μg lipid) it was above 90%; in the series on SK-BR-3 cells (SK-BR-3, 10.0 μg lipid), above 90%. Moreover, the “cells expressing CAT” value in the series on CV-1 cells [7] is 1-2%. Besides, the “efficiency in delivering ODN2A into cells compared with Lipofectin” value in the series with T antigen (5 μg, 1:1 DOPE, 18 h, ODN2A needed to inhibit T antigen expression to an equal extent) is “about 10 fold”. The “delivery of antisense oligomer” value in the series with T antigen (in words) is reported as “efficiently delivered the antisense oligomer into the cells without interfering with the capacity of the oligonucleotide to inhibit gene (protein) expression”. For the same molecule, the “amount of polyanion delivered into cells relative to commercially available lipids” value in the series with cells [4] is recorded as 2- to 100 fold. Further, the “transfection efficiency of 50 nm filtered preparations relative to larger particles” value in the series with cells [8] (50 nm filter) is given as 40-50%. The “transfection efficiency of 200 nm or 100 nm filtered preparations” value with cells [8] (in words) is given as “the most efficient (and equally efficient)”.
